Experimental data taken from patent US8680290B2, “Isoxazoline derivatives and their use as herbicides” (Syngenta Limited, priority 2004, dated 2014).

Assays:
Assay type in all cases: in vivo
[1] = test system: Monocotyledonous and dicotyledonous test plants; assay: Example B2 herbicidal action, application pre-emergence, 96-cell seed trays (Table B2b); settings: 1000 g/ha
Method: Monocotyledonous and dicotyledonous test plants were sown in sterilised standard soil in seed trays each having 96 cells. After one day (pre-emergence) or after 8 to 9 days cultivation (post-emergence) under controlled conditions in a climatic chamber (cultivation at 17/23° C.; 13 hours light; 50-60% humidity; after application at 19/24° C.), the plants were treated with an aqueous spray solution of 1000 mg/l of the active ingredient used (rate of application: […]; incl. 10% DMSO as solvent). The plants were grown on in the climatic chamber until the test was evaluated (10 total damage to plant, 0=no damage to plant) after 9 or 13 days.

[2] = test system: Monocotyledonous and dicotyledonous test plants; assay: Example B1 herbicidal action, application pre-emergence (Table B1b); settings: 250 g/ha, evaluated after 4 weeks
Summary of the method: (§1)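 Visual damage rating, 10 = plant dead and 0 = unharmed, taken at 3 weeks for post-emergence and 4 weeks for pre-emergence treatment. Application by spray of formulated aqueous solution either immediately after sowing or at 8–9 days' growth, with mono- and dicot plants kept in a greenhouse.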

[3] = test system: Monocotyledonous and dicotyledonous test plants; assay: Example B1 herbicidal action, application post-emergence (Table B1a); settings: 250 g/ha, evaluated after 3 weeks, scale 0-10
Summary of the method: as §1

CCOC(=O)CCC(c1c(F)cccc1F)S(=O)(=O)C1=NOC(C)(C)C1 (centres unmarked) [Compound No. 1.08, 4-(2,6-difluoro-phenyl)-4-(5,5-dimethyl-4,5-dihydroisoxazole-3-sulfonyl)-butyric acid ethyl ester]
herbicidal action (damage rating 0-10), Agrostis [1]: 7 | herbicidal action (damage rating 0-10), Digitaria [1]: 8 | herbicidal action (damage rating 0-10), Poa [1]: 9 | herbicidal action (damage rating 0-10), Setaria [1]: 3

Cn1nc(C(F)(F)F)c(C(F)S(=O)(=O)C2=NOC(C)(C)C2)c1Cl (centres unmarked) [2.02]
herbicidal action (damage rating 0-10), Agrostis [1]: 10 | herbicidal action (damage rating 0-10), Digitaria [1]: 9 | herbicidal action (damage rating 0-10), Poa [1]: 10 | herbicidal action (damage rating 0-10), Setaria [1]: 10

CC1(C)CC(S(=O)(=O)C2(c3c(F)cccc3F)CC2(Cl)Cl)=NO1 (centres unmarked) [Compound No. 1.45, 3-[2,2-dichloro-1-(2,6-difluoro-phenyl)-cyclopropanesulfonyl]-5,5-dimethyl-4,5-dihydroisoxazole]
herbicidal action (damage rating 0-10), Agrostis [1]: 7 | herbicidal action (damage rating 0-10), Digitaria [1]: 8 | herbicidal action (damage rating 0-10), Poa [1]: 10 | herbicidal action (damage rating 0-10), Setaria [1]: 6

COCC(=O)OC(COC)=C(c1c(F)cccc1F)S(=O)(=O)C1=NOC(C)(C)C1 [1.100]
herbicidal action (damage rating 0-10), Agrostis [1]: 5 | herbicidal action (damage rating 0-10), Digitaria [1]: 7 | herbicidal action (damage rating 0-10), Poa [1]: 9 | herbicidal action (damage rating 0-10), Setaria [1]: 3

Cc1cccc(C(CC=C(F)F)S(=O)(=O)C2=NOC(C)(C)C2)c1 (centres unmarked) [1.29]
herbicidal action (damage rating 0-10), Agrostis [1]: 10 | herbicidal action (damage rating 0-10), Digitaria [1]: 9 | herbicidal action (damage rating 0-10), Poa [1]: 8 | herbicidal action (damage rating 0-10), Setaria [1]: 4 | herbicidal action (damage rating 0-10), Amaranthus [2]: 2 | herbicidal action (damage rating 0-10), Digitaria [2]: 3 | herbicidal action (damage rating 0-10), Panicum [2]: 7 | herbicidal action (damage rating 0-10), Setaria [2]: 7 | herbicidal action (damage rating 0-10), Sida [2]: 0

CC1(C)CC(S(=O)(=O)C(C)(Cl)c2c(F)cccc2F)=NO1 (centres unmarked) [1.15]
herbicidal action (damage rating 0-10), Agrostis [1]: 2 | herbicidal action (damage rating 0-10), Digitaria [1]: 9 | herbicidal action (damage rating 0-10), Poa [1]: 10 | herbicidal action (damage rating 0-10), Setaria [1]: 9 | herbicidal action (damage rating 0-10), Amaranthus [2]: 10 | herbicidal action (damage rating 0-10), Digitaria [2]: 9 | herbicidal action (damage rating 0-10), Panicum [2]: 10 | herbicidal action (damage rating 0-10), Setaria [2]: 8 | herbicidal action (damage rating 0-10), Sida [2]: 0

COC(=O)C(Cl)(c1c(F)cccc1F)S(=O)(=O)C1=NOC(C)(C)C1 (centres unmarked) [Compound No. 1.14, chloro-(2,6-difluorophenyl)-(5,5-dimethyl-4,5-dihydroisoxazole-3-sulfonyl)-acetic acid methyl ester]
herbicidal damage rating, Abutilon [3]: 4 | herbicidal damage rating, Digitaria [3]: 3 | herbicidal damage rating, Panicum [3]: 0 | herbicidal damage rating, Setaria [3]: 3 | herbicidal damage rating, Sida [3]: 3 | herbicidal action (damage rating 0-10), Agrostis [1]: 10 | herbicidal action (damage rating 0-10), Digitaria [1]: 9 | herbicidal action (damage rating 0-10), Poa [1]: 10 | herbicidal action (damage rating 0-10), Setaria [1]: 10 | herbicidal action (damage rating 0-10), Amaranthus [2]: 8 | herbicidal action (damage rating 0-10), Digitaria [2]: 9 | herbicidal action (damage rating 0-10), Panicum [2]: 9 | herbicidal action (damage rating 0-10), Setaria [2]: 9 | herbicidal action (damage rating 0-10), Sida [2]: 6

CC1(C)CC(S(=O)(=O)C2(c3c(F)cccc3F)CC2[N+](=O)[O-])=NO1 (centres unmarked) [1.48]
herbicidal action (damage rating 0-10), Agrostis [1]: 10 | herbicidal action (damage rating 0-10), Digitaria [1]: 9 | herbicidal action (damage rating 0-10), Poa [1]: 10 | herbicidal action (damage rating 0-10), Setaria [1]: 8

COCC(=O)C(c1c(F)cccc1F)S(=O)(=O)C1=NOC(C)(C)C1 (centres unmarked) [Compound No. 1.59]
herbicidal action (damage rating 0-10), Agrostis [1]: 9 | herbicidal action (damage rating 0-10), Digitaria [1]: 8 | herbicidal action (damage rating 0-10), Poa [1]: 10 | herbicidal action (damage rating 0-10), Setaria [1]: 9

CC1(C)CC(S(=O)(=O)C(c2c(F)cccc2F)S(=O)(=O)Cc2ccccc2)=NO1 (centres unmarked) [1.39]
herbicidal action (damage rating 0-10), Agrostis [1]: 10 | herbicidal action (damage rating 0-10), Digitaria [1]: 5 | herbicidal action (damage rating 0-10), Poa [1]: 10 | herbicidal action (damage rating 0-10), Setaria [1]: 3 | herbicidal action (damage rating 0-10), Amaranthus [2]: 3 | herbicidal action (damage rating 0-10), Digitaria [2]: 7 | herbicidal action (damage rating 0-10), Panicum [2]: 7 | herbicidal action (damage rating 0-10), Setaria [2]: 3 | herbicidal action (damage rating 0-10), Sida [2]: 0

CC1(C)CC([S+]([O-])C(Cl)c2c(F)cccc2F)=NO1 (mixture of isomers) [1.24]
herbicidal damage rating, Digitaria [3]: 6 | herbicidal damage rating, Panicum [3]: 6 | herbicidal damage rating, Setaria [3]: 6 | herbicidal action (damage rating 0-10), Agrostis [1]: 10 | herbicidal action (damage rating 0-10), Digitaria [1]: 10 | herbicidal action (damage rating 0-10), Poa [1]: 10 | herbicidal action (damage rating 0-10), Setaria [1]: 9 | herbicidal action (damage rating 0-10), Amaranthus [2]: 8 | herbicidal action (damage rating 0-10), Digitaria [2]: 8 | herbicidal action (damage rating 0-10), Panicum [2]: 10 | herbicidal action (damage rating 0-10), Setaria [2]: 7 | herbicidal action (damage rating 0-10), Sida [2]: 4

CC1(C)CC(S(=O)(=O)C2(c3c(F)cccc3F)CC2)=NO1 [Compound No. 1.01, 3-[1-(2,6-difluoro-phenyl)-cyclopropanesulfonyl]-5,5-dimethyl-4,5-dihydroisoxazole]
herbicidal action (damage rating 0-10), Agrostis [1]: 10 | herbicidal action (damage rating 0-10), Digitaria [1]: 9 | herbicidal action (damage rating 0-10), Poa [1]: 10 | herbicidal action (damage rating 0-10), Setaria [1]: 9 | herbicidal action (damage rating 0-10), Amaranthus [2]: 2 | herbicidal action (damage rating 0-10), Digitaria [2]: 7 | herbicidal action (damage rating 0-10), Panicum [2]: 8 | herbicidal action (damage rating 0-10), Setaria [2]: 8 | herbicidal action (damage rating 0-10), Sida [2]: 0

CC1(C)CC(S(=O)(=O)C(C)(Br)c2c(F)cccc2F)=NO1 (centres unmarked) [1.37]
herbicidal action (damage rating 0-10), Agrostis [1]: 10 | herbicidal action (damage rating 0-10), Digitaria [1]: 9 | herbicidal action (damage rating 0-10), Poa [1]: 10 | herbicidal action (damage rating 0-10), Setaria [1]: 9 | herbicidal action (damage rating 0-10), Amaranthus [2]: 0 | herbicidal action (damage rating 0-10), Digitaria [2]: 9 | herbicidal action (damage rating 0-10), Panicum [2]: 9 | herbicidal action (damage rating 0-10), Setaria [2]: 9 | herbicidal action (damage rating 0-10), Sida [2]: 5

CC1(C)CC(S(=O)(=O)C(F)(F)c2ccccc2C(F)(F)F)=NO1 [1.65]
herbicidal damage rating, Abutilon [3]: 2 | herbicidal damage rating, Amaranthus [3]: 0 | herbicidal damage rating, Digitaria [3]: 8 | herbicidal damage rating, Panicum [3]: 7 | herbicidal damage rating, Setaria [3]: 5 | herbicidal damage rating, Sida [3]: 2 | herbicidal action (damage rating 0-10), Amaranthus [2]: 10 | herbicidal action (damage rating 0-10), Digitaria [2]: 10 | herbicidal action (damage rating 0-10), Panicum [2]: 10 | herbicidal action (damage rating 0-10), Setaria [2]: 10 | herbicidal action (damage rating 0-10), Sida [2]: 8

CC1(C)CC(S(=O)(=O)C(F)(F)c2cc(F)cc3c2OCOC3)=NO1 [1.109]
herbicidal damage rating, Abutilon [3]: 6 | herbicidal damage rating, Amaranthus [3]: 5 | herbicidal damage rating, Digitaria [3]: 6 | herbicidal damage rating, Panicum [3]: 5 | herbicidal damage rating, Setaria [3]: 3 | herbicidal damage rating, Sida [3]: 2 | herbicidal action (damage rating 0-10), Amaranthus [2]: 10 | herbicidal action (damage rating 0-10), Digitaria [2]: 10 | herbicidal action (damage rating 0-10), Panicum [2]: 10 | herbicidal action (damage rating 0-10), Setaria [2]: 9 | herbicidal action (damage rating 0-10), Sida [2]: 0

Cc1ccccc1C(F)S(=O)(=O)C1=NOC(C)(C)C1 (racemic) [1.93]
herbicidal damage rating, Abutilon [3]: 3 | herbicidal damage rating, Amaranthus [3]: 7 | herbicidal damage rating, Digitaria [3]: 7 | herbicidal damage rating, Panicum [3]: 8 | herbicidal damage rating, Setaria [3]: 3 | herbicidal damage rating, Sida [3]: 2 | herbicidal action (damage rating 0-10), Amaranthus [2]: 8 | herbicidal action (damage rating 0-10), Digitaria [2]: 10 | herbicidal action (damage rating 0-10), Panicum [2]: 10 | herbicidal action (damage rating 0-10), Setaria [2]: 10 | herbicidal action (damage rating 0-10), Sida [2]: 6

CC1(C)CC(S(=O)(=O)C(F)(F)c2ccccc2)=NO1 [1.77]
herbicidal damage rating, Abutilon [3]: 5 | herbicidal damage rating, Amaranthus [3]: 0 | herbicidal damage rating, Digitaria [3]: 8 | herbicidal damage rating, Panicum [3]: 5 | herbicidal damage rating, Setaria [3]: 6 | herbicidal damage rating, Sida [3]: 3 | herbicidal action (damage rating 0-10), Amaranthus [2]: 10 | herbicidal action (damage rating 0-10), Digitaria [2]: 10 | herbicidal action (damage rating 0-10), Panicum [2]: 10 | herbicidal action (damage rating 0-10), Setaria [2]: 10 | herbicidal action (damage rating 0-10), Sida [2]: 7

CC1(C)CC(S(=O)(=O)C(F)(Cl)c2cccc(F)c2F)=NO1 (centres unmarked) [1.148]
herbicidal damage rating, Abutilon [3]: 0 | herbicidal damage rating, Amaranthus [3]: 7 | herbicidal damage rating, Digitaria [3]: 8 | herbicidal damage rating, Panicum [3]: 8 | herbicidal damage rating, Setaria [3]: 8 | herbicidal damage rating, Sida [3]: 2 | herbicidal action (damage rating 0-10), Amaranthus [2]: 10 | herbicidal action (damage rating 0-10), Digitaria [2]: 10 | herbicidal action (damage rating 0-10), Panicum [2]: 10 | herbicidal action (damage rating 0-10), Setaria [2]: 10 | herbicidal action (damage rating 0-10), Sida [2]: 6

Cn1nc(C(F)(F)F)c(C(Br)(Br)S(=O)(=O)C2=NOC(C)(C)C2)c1OCC(F)(F)F [2.09]
herbicidal damage rating, Abutilon [3]: 7 | herbicidal damage rating, Amaranthus [3]: 7 | herbicidal damage rating, Digitaria [3]: 8 | herbicidal damage rating, Panicum [3]: 8 | herbicidal damage rating, Setaria [3]: 7 | herbicidal damage rating, Sida [3]: 2 | herbicidal action (damage rating 0-10), Amaranthus [2]: 10 | herbicidal action (damage rating 0-10), Digitaria [2]: 10 | herbicidal action (damage rating 0-10), Panicum [2]: 10 | herbicidal action (damage rating 0-10), Setaria [2]: 10 | herbicidal action (damage rating 0-10), Sida [2]: 8
